Assay [1] has as its target T1, CDK2/CycE (Homo sapiens, UniProt P24941).
T1 construct: GST; purchased ProQinase GmbH (Freiburg, Germany); host or cells: insect cells (Sf9)
Kind of assay: CDK2/CycE high ATP kinase assay (Method 2b, TR-FRET, 2 mM ATP). The format is biochemical. As for the experimental part:
2b. CDK2/CycE High ATP Kinase Assay:
CDK2/CycE-inhibitory activity of compounds of the present invention at 2 mM adenosine-tri-phosphate (ATP) was quantified employing the CDK2/CycE TR-FRET (TR-FRET=Time Resolved Fluorescence Resonance Energy Transfer) assay as described in the following paragraphs.
Recombinant fusion proteins of GST and human CDK2 and of GST and human CycE, expressed in insect cells (Sf9) and purified by Glutathion-Sepharose affinity chromatography, were purchase from ProQinase GmbH (Freiburg, Germany). As substrate for the kinase reaction biotinylated peptide biotin-Ttds-YISPLKSPYKISEG (C-terminus in amid form) was used which can be purchased e.g. from the company JERINI peptide technologies (Berlin, Germany).
For the assay 50 nl of a 100 fold concentrated solution of the test compound in DMSO was pipetted into a black low volume 384 well microtiter plate (Greiner Bio-One, Frickenhausen, Germany), 2 μl of a solution of CDK2/CycE in aqueous assay buffer [50 mM Tris/HCl pH 8.0, 10 mM MgCl2, 1.0 mM dithiothreitol, 0.1 mM sodium ortho-vanadate, 0.01% (v/v) Nonidet-P40 (Sigma)] were added and the mixture was incubated for 15 min at 22° C. to allow pre-binding of the test compounds to the enzyme before the start of the kinase reaction. […] The concentration of CDK2/CycE was adjusted depending of the activity of the enzyme lot and was chosen appropriate to have the assay in the linear range, typical concentrations were in the range of 15 ng/ml. The reaction was stopped by the addition of 5 μl of a solution of TR-FRET detection reagents (0.2 μM streptavidine-XL665 [Cisbio Bioassays, Codolet, France] and 1 nM anti-RB(pSer807/pSer811)-antibody from BD Pharmingen [#558389] and 1.2 nM LANCE EU-W1024 labeled anti-mouse IgG antibody [Perkin-Elmer, product no. AD0077, as an alternative a Terbium-cryptate-labeled anti-mouse IgG antibody from Cisbio Bioassays can be used]) in an aqueous EDTA-solution (100 mM EDTA, 0.2% (w/v) bovine serum albumin in 100 mM HEPES pH 7.5).
The resulting mixture was incubated 1 h at 22° C. to allow the formation of complex between the phosphorylated biotinylated peptide and the detection reagents. Subsequently the amount of phosphorylated substrate was evaluated by measurement of the resonance energy transfer from the Eu-chelate to the streptavidine-XL. Therefore, the fluorescence emissions at 620 nm and 665 nm after excitation at 350 nm wer measured in a TR-FRET reader, e.g. a Rubystar (BMG Labtechnologies, Offenburg, Germany) or a Viewlux (Perkin-Elmer). The ratio of the emissions at 665 nm and at […] was taken as the measure for the amount of phosphorylated substrate. The data were normalised (enzyme reaction without inhibitor=0% inhibition, all other assay components but no enzyme=100% inhibition).
(In TR-FRET formats the signal depends on donor and acceptor labels being close together.)

In assay [2] the test system is B16F10. Kind of assay: Proliferation assay, crystal violet. Type of assay: cell-based. The following applies: Mus musculus, B16-F10, 96 h; B16F10, 4 days; read-out: Inhibition of B16F10 cell proliferation IC50. How it is done:
(§1) Cultivated tumour cells (HeLa, human cervical tumour cells, ATCC CCL-2; NCI—H460, human non-small cell lung carcinoma cells, ATCC HTB-177; DU 145, hormone-independent human prostate carcinoma cells, ATCC HTB-81; HeLa-MaTu-ADR, multidrug-resistant human cervical carcinoma cells, EPO-GmbH Berlin; Caco-2, human colorectal carcinoma cells, ATCC HTB-37; B16F10, mouse melanoma cells, ATCC CRL-6475) were plated at a density of 3,500 cells/well (DU145), 3,000 cells/well (HeLa-MaTu-ADR), 1,500 cells/well (NCI—H460), 3,000 cells/well (HeLa), 2,000 cells/well (Caco-2), or 1,000 cells/well (B16F10) in a 96-well multititer plate in 150 μL of their respective growth medium supplemented 10% fetal calf serum. After 24 hours, the cells of one plate (zero-point plate) were stained with crystal violet (see below), the test substances were added in various concentrations (0 μM, as well as in the range of 0.0001-10 μM) employing HP Dispenser. The cells were incubated for 4 days in the presence of test substances. Cell proliferation was determined by staining the cells with crystal violet: the cells were fixed by adding 20 μl/measuring point of an 11% glutaric aldehyde solution for 15 minutes at room temperature. After three washing cycles of the fixed cells with water, the plates were dried at room temperature. The cells were stained by adding 100 μl/measuring point of a 0.1% crystal violet solution DU 145, Caco-2, HeLa (pH 4.5) B16F10, NCI—H460, HeLa-MaTu-ADR. After three washing cycles of the stained cells with water, the plates were dried at room temperature. The dye was dissolved by adding 100 μl per measuring point of a 10% acetic acid solution. The extinction was determined by photometry at a wavelength of 595/550/620 nm depending on the intensity of coloration, usually at 595 nm. The change of cell number, in percent, was calculated by normalization of the measured values to the extinction values of the zero-point plate (=0%) and the extinction of the untreated (0 μM) cells (=100%). The IC50 values (inhibitory concentration at 50% of maximal effect) were determined by means of a 4 parameter fit.

Assay [3] deals with Caco-2. Briefly: Proliferation assay, crystal violet. The format is cell-based. The following applies: Homo sapiens, 96 h; Caco-2, 4 days; read-out: Inhibition of Caco-2 cell proliferation IC50. As for the experimental part: as §1
In assay [4] the test system is DU145. Kind of assay: Proliferation assay, crystal violet. The format is cell-based. The following applies: Homo sapiens, DU-145, 96 h; DU145, 4 days; read-out: Inhibition of DU145 cell proliferation IC50. How it is done: as §1
The subject of assay [5] is HeLa. Kind of assay: Proliferation assay, crystal violet. The format is cell-based. The conditions noted are these: Homo sapiens, 96 h, 4 days, read-out: Inhibition of HeLa cell proliferation IC50. As for the experimental part: as §1
Assay [6] deals with NCI-H460. Kind of assay: Proliferation assay, crystal violet. Type of assay: cell-based. The following applies: Homo sapiens, 96 h; NCI-H460, 4 days; read-out: Inhibition of NCI-H460 cell proliferation IC50. As for the experimental part:
as §1

The structures appear in SMILES notation.

Consider `CS(=N)(Cc1cc2nc(c1)OCCCOc1cc(F)ccc1-c1cc(ncc1F)N2)=NCCCO` (racemic) [Example 2, (rac)-3-(2-{[15,19-difluoro-3,4-dihydro-2H,11H-10,6-(azeno)-12,16-(metheno)-1,5,11,13-benzodioxadiazacyclooctadecin-8-yl]methyl}-2-methyl-2λ^6-diazathia-1,2-dien-1-yl)propan-1-ol], for which the IC50 was 246 nM in assay [1]; 37.4 nM in assay [2]; 28.7 nM in assay [3]; 29.5 nM in assay [4]; 10.2 nM in assay [5]; 89.8 nM in assay [6].
In turn, `CS(=N)(Cc1cc2nc(c1)OCCCOc1cc(F)ccc1-c1cc(ncc1F)N2)=NC#N` (racemic) [Example 3, (rac)-[{[15,19-difluoro-3,4-dihydro-2H,11H-10,6-(azeno)-12,16-(metheno)-1,5,11,13-benzodioxadiazacyclooctadecin-8-yl]methyl}(imino)methyl-λ^6-sulfanylidene]cyanamide] came in with an IC50 in assay [1] of 62.4 nM.
Same read-out and setting: next, `CN=S(C)(=N)Cc1cc2nc(c1)OCCCOc1cc(F)ccc1-c1cc(ncc1F)N2` (racemic) [Example 4, (rac)-8-[(N,S-dimethylsulfonodiimidoyl)methyl]-15,19-difluoro-3,4-dihydro-2H,11H-10,6-(azeno)-12,16-(metheno)-1,5,11,13-benzodioxadiazacyclooctadecine]: 620 nM.
As to `CS(=N)(Cc1cc2cc(c1)OCCCCOc1cc(F)ccc1-c1nc(ncc1F)N2)=NC1CC1` (racemic) [Example 9, (rac)-9-[(N-cyclopropyl-S-methylsulfonodiimidoyl)methyl]-16,20-difluoro-2,3,4,5-tetrahydro-12H-13,17-(azeno)-11,7-(metheno)-1,6,12,14-benzodioxadiazacyclononadecine], the IC50 is 997 nM in assay [1]; 92.2 nM in assay [2]; 47.8 nM in assay [3]; 118 nM in assay [4]; 31.6 nM in assay [5]; 56 nM in assay [6].
In turn, `CN=S(C)(=N)Cc1cc2cc(c1)OCCCCOc1cc(F)ccc1-c1nc(ncc1F)N2` (racemic) [Example 10, (rac)-9-[(N,S-dimethylsulfonodiimidoyl)methyl]-16,20-difluoro-2,3,4,5-tetrahydro-12H-13,17-(azeno)-11,7-(metheno)-1,6,12,14-benzodioxadiazacyclononadecine] registered an IC50 in assay [1] of 1650 nM.
Turning to `CS(=N)(=N)Cc1cc2nc(c1)OCCCOc1cc(F)ccc1-c1cc(ncc1F)N2` [Example 1, 15,19-difluoro-8-[(S-methylsulfonodiimidoyl)methyl]-3,4-dihydro-2H,11H-10,6-(azeno)-12,16-(metheno)-1,5,11,13-benzodioxadiazacyclooctadecine], the IC50 worked out at 140 nM in assay [1]; 14.3 nM in assay [2]; 16.4 nM in assay [3]; 9.1 nM in assay [4]; 2.8 nM in assay [5]; 10.4 nM in assay [6].
As to `CS(=N)(=N)Cc1cc2cc(c1)OCCCCOc1cc(F)ccc1-c1nc(ncc1F)N2` [Example 5, 16,20-difluoro-9-[(S-methylsulfonodiimidoyl)methyl]-2,3,4,5-tetrahydro-12H-13,17-(azeno)-11,7-(metheno)-1,6,12,14-benzodioxadiazacyclononadecine], the IC50 in assay [1] stood at 1240 nM; in assay [2], 50.6 nM; in assay [3] it was 35.2 nM; in assay [4], 36.2 nM; in assay [5], 25.8 nM; in assay [6] it was 38.3 nM.
As for `CS(=N)(=N)Cc1cc2cc(c1)OCCCCOc1c(ccc(F)c1F)-c1nc(ncc1F)N2` [Example 6, 16,20,21-trifluoro-9-[(S-methylsulfonodiimidoyl)methyl]-2,3,4,5-tetrahydro-12H-13,17-(azeno)-11,7-(metheno)-1,6,12,14-benzodioxadiazacyclononadecine], the IC50 in assay [1] was 12500 nM; in assay [2] it was 683 nM; in assay [3], 325 nM; in assay [4], 360 nM; in assay [5], 313 nM; in assay [6], 369 nM.
Consider `CS(=N)(=N)Cc1cc2cc(c1)OCCCCOc1c(F)cccc1-c1nc(ncc1F)N2` [Example 7, 16,21-difluoro-9-[(S-methylsulfonodiimidoyl)methyl]-2,3,4,5-tetrahydro-12H-13,17-(azeno)-11,7-(metheno)-1,6,12,14-benzodioxadiazacyclononadecine], for which the IC50 was determined as 784 nM in assay [2]; 396 nM in assay [3]; 396 nM in assay [4]; 332 nM in assay [5]; 448 nM in assay [6].
`CS(=N)(=N)Cc1cc2nc(c1C#N)OCCCOc1cc(F)ccc1-c1cc(ncc1F)N2` [Example 8, 15,19-difluoro-8-[(S-methylsulfonodiimidoyl)methyl]-3,4-dihydro-2H,11H-10,6-(azeno)-12,16-(metheno)-1,5,11,13-benzodioxadiazacyclooctadecine-7-carbonitrile]: the IC50 was determined as 378 nM in assay [1]; 50.7 nM in assay [2]; 43.1 nM in assay [3]; 11.2 nM in assay [4]; 5.5 nM in assay [5].

Source of the values: patent publication US10717749B2, “Macrocyclic sulfondiimine compounds” (BAYER PHARMA AKTIENGESELLSCHAFT, priority 2015, dated 2020).
